Results from patent publication US20230405063A1, “USE OF PROBIOTIC COMPONENT AND PHARMACEUTICAL COMPOSITION CONTAINING PROBIOTIC COMPONENT” (CHENGDU KUACHANGAOPU MEDICAL TECHNOLOGY CO., LTD., priority 2020, published 2023).

Columns and labels:
Format in all cases: in vivo
[1] = test system: mouse breast cancer 4T1 cells; test: Middle-aged and elderly patient model, 4T1 tumors in eight-month-old mice, r′3d/r′21d (Example 14, Table 19); details: single intratumoral injection, 50 l/mouse; for Tumor inhibition rate r′3: day 3 after administration; for Tumor inhibition rate r′21: day 21 after administration
Description: (§1) V=0.5×a×b^2, wherein a and b represent the length and width of the local lesion, respectively; Volume of the local lesion (e.g. tumor):
(§2) Local lesion (e.g., tumor) proliferation rate (R)=TV/CV×100, wherein TV and CV are the local lesion volumes in the study group and negative control group, respectively;
(§3) The method for determining the effect of combined drug administration in animal experiments was Burgi method (Burgi Y. Pharmacology; Drug actions and reactions. Cancerres. 1978, 38(2), 284-285). The Burgi method was modified by Zhengjun JIN (Zhengjun JIN, Equal probability and curve and “Q50”, Journal of the Second Shanghai Medical College; 1981, 1, 75-86) with q calculated as: q=EA+B/(EA+EB−EA×EB). In the following examples of the present invention, the combinational pharmaceutical efficacies (drug efficacies) of drug A and drug B co-administration was determined by ratio q of actual pharmaceutical efficacy (drug efficacy)/theoretical pharmaceutical efficacy (drug efficacy) according to Zhengjun JIN method, as follows.
Eight-month-old mice were used as experimental subjects in the middle-aged and elderly patient model, 0.5×10^5 mouse breast cancer 4T1 cells/mouse were injected into the right axilla subcutaneously for transplantation tumor modeling, and the mean tumor volume of successfully modeled nude mice was 117.3 mm^3. The model animals were randomly divided into 18 groups. Each group was administered once by intratumoral injection according to the drug grouping in Table 19 with an injection volume of 50 l/mouse. The local lesion volume (V) was measured on day 3 and day 21 after drug administration, and the tumor inhibition rates (r′3d, r′21d) were calculated at each of time points relative to the negative control group, and the results were shown in the following Table. The drugs to be administered were prepared according to the conventional preparation method for aqueous solution or according to the preparation method in Example 1. The actual/expected ratio q3d for short-term drug efficacy and the actual/expected ratio […] for medium- and long-term drug efficacy were calculated based on the drug efficacies (r′3d, r′21d) at different times (day 3, day 21), respectively.

breast cancer 4T1 cells [2] = test: Short-term tumor inhibition in 4T1 tumor-bearing BALB/c mice (Example 9, Table 14); details: dosed twice, 7th day after final administration; for tumor inhibition rate rA: series A: intravenous injection; for tumor inhibition rate rB: series B: intratumoral injection
Description: as §3
BALB/c mice were used as experimental subjects, and breast cancer 4T1 cells were used as modeling cells. 0.5×10^6 cells/mouse were injected into the right axilla subcutaneously for transplantation tumor modeling, and the average tumor volume of successfully modeled nude mice was 160.1 mm^3. The model animals were randomly divided into 21 groups, and the drugs were administered by intravenous injection (series A) and intratumoral injection (series B) according to the drugs and doses in Table 14, respectively. All the drugs administered were aqueous liquids, which were formulated according to the method of Example 1. Each group was dosed twice. On the 7th day after final administration, the animals were euthanized, and the tumor tissues were taken out after dissection to determine the tumor weight, and the tumor inhibition rates rA and rB were calculated relative to the corresponding negative control groups in series A and series B.

[3] = test system: human hepatoma cells (HepG2); test: Tumor inhibition in HepG2 tumor-bearing nude mice, probiotic component/methylene blue (Example 7, Table 11); details: dosed twice, interval 7 days, 150 μl/mouse/time, 7th day after final administration, probiotic component = inactivated Saccharomyces cerevisiae
Description: as §3
Nude mice were used as experimental subjects, and human hepatoma cells (HepG2) were used as modeling cells. […] The model animals were randomly divided into 13 groups, and the drugs were administered according to Table 11. […] Each group was dosed twice with an interval of 7 days, and the injection volume was 150 μl/mouse/time. On the 7th day after final administration, the animals were euthanized, and the tumor tissues were taken out after dissection to determine the tumor weight, and the tumor inhibition rate was calculated relative to the negative control group.

[4] = test system: gastric tumor cells (BGC823); test: Tumor inhibition in BGC823 tumor-bearing nude mice (Example 5, Table 8); details: intratumoral injection once, 150 μl/mouse, 7th day
Description: as §3
Nude mice were used as experimental subjects, and gastric tumor cells (BGC823) were used as modeling cells, 1×10^5 cells/mouse were injected into the right axilla subcutaneously for transplantation tumor modeling, and the average tumor volume of successfully modeled nude mice was 164.4 mm^3. The model animals were randomly divided into 14 groups, and the drugs according to the pharmacological constitutions in Table 8 were administered via intratumoral injection. Each group was dosed once with an injection volume of 150 μl/mouse; wherein the pharmaceutical compositions of groups 5, 11 were semi-fluid, the pharmaceutical compositions of other groups are liquid. On the 7th day after drug administration, the animals were euthanized, and after dissection, the tumor tissue was taken out to determine the tumor weight, and the tumor inhibition rate (r) was calculated relative to the negative control group. Further, the actual efficacy/expected efficacy ratio q of a drug could also be calculated according to the therapeutic effect (tumor inhibition rate).

[5] = test system: mouse embryonic fibroblasts 3T3; test: Local lesion inhibition in 3T3 fibroblast nodule model in nude mice (Example 6, Table 9); details: dosed twice at interval of 2 days, 150 μl/mouse/time, 7th day after final administration
Description: as §1, §2, §3
Nude mice were used as experimental subjects, and mouse embryonic fibroblasts 3T3 were used as modeling cells. 2×10^4 cells/mouse were injected into the right axilla subcutaneously for transplantation nodule modeling, and the average volume of tumor-like nodules in successfully modeled nude mice was 171.5 mm^3. The model animals were randomly divided into […], and the drugs were administered according to Table 9. Each group except for groups 21-24 were administered by intraperitoneal injection, intra-nodal injection. The drugs used in groups 21-24 were a composition of non-local administration dosage form (dosage form that a probiotic component and a co-administration substance could be administered separately). The administration route of series A was: intraperitoneal injection of probiotic component+intra-nodal injection of co-administration substance; and the administration route of series B was: intraperitoneal injection of co-administration substance+intra-nodal injection of probiotic component. Each group was dosed twice at an interval of 2 days, with an injection volume of 150 μl/mouse/time. On the 7th day after the final administration, the volume (V) of local lesions comprising fibroblasts was measured, and the relative local lesion inhibition rates (r′A, r′B) were calculated for series A and series B, respectively, as compared with the negative control group. Further, the actual drug efficacy/expected efficacy ratio q could also be calculated according to the therapeutic effect (local lesion inhibition rate).

breast cancer 4T1 cells [6] = test: Extra-tumoral local administration in 4T1 tumor-bearing BALB/c mice, R7d/R21d (Example 11, Table 17); details: subaxillary intradermal (extra-tumoral), twice at 7-day interval, 120 μl/mouse/time
Protocol: as §1, §2
In the following examples of the present invention, the combinational pharmaceutical efficacies (drug efficacies) of drug A and drug B co-administration was determined by ratio q of actual pharmaceutical efficacy (drug efficacy)/theoretical pharmaceutical efficacy (drug efficacy) according to Zhengjun JIN method, as follows.
BALB/c mice were used as experimental subjects, and breast cancer 4T1 cells were used as modeling cells. 0.25×10^5 cells/mouse were injected into the right axilla subcutaneously for transplantation tumor modeling. On the 5th day after modeling, the test animals with visually obvious tumors were randomly divided into 12 groups, having 10 animals in each group. […] In groups 1-11, on days 7 and 21 after the last dose the tumor volume (V7d, V21d) were measured, and the relative tumor proliferation rates (R7d, R21d) were calculated relative to the negative control group on days 7 and 21 after the dose, so that the short-term therapeutic effectiveness (100%−R7d) and the medium- and long-term therapeutic effectiveness (100%−R21d) could be calculated, respectively. Further, based on the short-term therapeutic effectiveness and the medium- and long-term therapeutic effectiveness, the actual/expected ratio for short-term pharmaceutical efficacies q7d and the actual/expected ratio for medium- and long-term pharmaceutical efficacies q21d were calculated respectively.

[7] = test system: human liver cancer HepG2 cells; test: Tumor inhibition in HepG2 tumor-bearing nude mice (Example 2, Table 4); details: dosed once, 150 μl/mouse; for Tumor weight (x ± s): 7th day after administration; for Tumor inhibition rate r: 7th day, relative to negative control
Protocol: The tumor-bearing nude mice were widely used for drug studies on chemotherapy rather than immunotherapy in patients with solid tumors. Taking nude mice as experimental subjects, human liver cancer HepG2 cells were used as modeling cells, and 1×10^5 cells/mouse were injected into the right axilla subcutaneously for transplantation tumor modeling, and the average tumor volume of successfully modeled nude mice was 161.3 mm^3. The model animals were randomly divided into 17 groups. The drugs were administered according to the drug and dosing method in Table 4. Each group was dosed once with an injection volume of 150 μl/mouse. On the 7th day after drug administration, the animals were euthanized, and after dissection, the tumor tissue was taken out to determine the tumor weight, and the tumor inhibition rate (r) was calculated relative to the negative control group.

breast cancer 4T1 cells [8] = test: Short- and medium/long-term relative tumor proliferation rate in 4T1 tumor-bearing BALB/c mice (Example 10, Table 16); details: intratumoral injection, dosed twice at interval of 7 days, 100 μl/mouse/time
Description: as §1, §2, §3
BALB/c mice were used as experimental subjects, and breast cancer 4T1 cells were used as modeling cells. 0.5×10^6 cells/mouse were injected into the right axilla subcutaneously for transplantation tumor modeling, and the average tumor volume of successfully modeled nude mice was 107.4 mm^3. The model animals were randomly divided into 17 groups.
The drugs, formulated according to the method of Example 1, were administered according to Table 16. Each group was dosed twice with an interval of 7 days, and the injection volumes were 300 μl/mouse/time for groups 13 and 14, 100 μl/mouse/time for other groups. The drugs were administered by subaxillary administration of the right forelimb for group 15, and by intratumoral injection for other groups. Group 16 was administered sequentially (the first dose was aprobiotic semi-fluid-like component/cytotoxic drug/weak local acting compound, and the last dose was inactivated probiotics), while the other groups were administered with the same drug twice. On days 7 and 21 after the last dose, the tumor volumes of each group were measured (V7d, V21d), and the relative tumor proliferation rates (R7d, R21d) were calculated relative to the negative control group, respectively, so that the short-term therapeutic effectiveness (100%−R7d) and the medium- and long-term therapeutic effectiveness (100%−R21d) could be calculated, respectively.

Question: With `OC[C@H]1OC(O)[C@H](O)[C@@H](O)[C@@H]1O` (stereo partly drawn) [20% glucose aqueous solution] as the molecule, how does the “Tumor inhibition rate r′3” value [1] read?
Answer: 3.1%

Question: What about the “Tumor inhibition rate r′21” value [1] of the same molecule?
Answer: 4.3%

Question: Which “Tumor inhibition rate r′3” value [1] does the source give for `OC[C@H]1OC(O)[C@H](O)[C@@H](O)[C@@H]1O` (stereo partly drawn) [30% glucose aqueous solution] here?
Answer: 20.8%

Question: What about the “Tumor inhibition rate r′21” value [1] of the same molecule?
Answer: 8.2%

Question: Which results are given for `CN(C)c1ccc2nc3ccc(=[N+](C)C)cc-3sc2c1` [1% methylene blue, methylene blue]?
Answer: tumor inhibition rate rA (breast cancer 4T1 cells [2]): 3.7%; tumor inhibition rate rB (breast cancer 4T1 cells [2]): 13.4%; Tumor inhibition rate [3]: 26.4%; Tumor weight (x ± s) [3]: 0.186 ± 0.096 g; Tumor weight (x ± s) ([3]; listed as 0.15% methylene blue): 0.227 ± 0.107 g; Tumor inhibition rate ([3]; listed as 0.50% methylene blue): 17.7%; Tumor weight (x ± s) ([3]; listed as 0.50% methylene blue): 0.208 ± 0.115 g; Tumor inhibition rate ([3]; listed as 3% methylene blue): 71.1%; Tumor weight (x ± s) ([3]; listed as 3% methylene blue): 0.073 ± 0.033 g; Tumor inhibition rate r [4]: 12.5%; Tumor weight (x ± s) [4]: 0.197 ± 0.062 g; V (x ± s), volume of local lesions, series B ([5]; intra-nodal injection): 1.020 ± 0.210 cm^3; V (x ± s), volume of local lesions, series A ([5]; intraperitoneal injection): 1.288 ± 0.205 cm^3

B1: interleukin-12 (protein, UniProt P29459 23-219; P29460 23-328, looked up)
Interleukin-12 subunit alpha: RNLPVATPDPGMFPCLHHSQNLLRAVSNMLQKARQTLEFYPCTSEEIDHEDITKDKTSTVEACLPLELTKNESCLNSRETSFITNGSCLASRKTSFMMALCLSSIYEDLKMYQVEFKTMNAKLLMDPKRQIFLDQNMLAVIDELMQALNFNSETVPQKSSLEEPDFYKTKIKLCILLHAFRIRAVTIDRVMSYLNAS
Interleukin-12 subunit beta: IWELKKDVYVVELDWYPDAPGEMVVLTCDTPEEDGITWTLDQSSEVLGSGKTLTIQVKEFGDAGQYTCHKGGEVLSHSLLLLHKKEDGIWSTDILKDQKEPKNKTFLRCEAKNYSGRFTCWWLTTISTDLTFSVKSSRGSSDPQGVTCGAATLSAERVRGDNKEYEYSVECQEDSACPAAEESLPIEVMVDAVHKLKYENYTSSFFIRDIIKPDPPKNLQLKPLKNSRQVEVSWEYPDTWSTPHSYFSLTFCVQVQGKSKREKKDRVFTDKTSATVICRKNASISVRAQDRYYSSSWSEWASVPCS
notes: immunoenhancement control
Question: What does the source list for B1?
Answer: R7 d (relative tumor proliferation rate) (breast cancer 4T1 cells [6]; day 7 after last dose): 99%; R21 d (relative tumor proliferation rate) (breast cancer 4T1 cells [6]; day 21 after last dose): 97%; tumor inhibition rate rA (breast cancer 4T1 cells [2]): 5.3%; tumor inhibition rate rB (breast cancer 4T1 cells [2]): 4.6%; Tumor weight (x ± s) ([7]; intratumoral injection): 0.241 ± 0.111 g; Tumor inhibition rate r ([7]; intratumoral injection): 8.1%; Tumor weight (x ± s) ([7]; intravenous injection): 0.230 ± 0.102 g; Tumor inhibition rate r ([7]; intravenous injection): 4.7%; relative tumor proliferation rate R7 d (breast cancer 4T1 cells [8]; day 7 after last dose): 95%; relative tumor proliferation rate R21 d (breast cancer 4T1 cells [8]; day 21 after last dose): 96%
